The source of these data is patent US20130317027A1, “COMPOUNDS AND THERAPEUTIC USES THEREOF” (Myrexis, Inc, priority 2010, published 2013).

In data set [1] the test system is HCT116 cells.
Experimental: (§1) HCT116 cells were seeded in 96 well plates (Greiner Bio-One, Monroe, N.C.) and allowed to settle overnight. Test compound dissolved in dimethyl sulfoxide (DMSO) was added and drug incubation proceeded for 72 hours. […] After 72 hour, 50 L of CellTiter-Glo Luminescent Cell Viability Assay reagent (Promega Corporation, Madison, Wis.) was added to cells in 200 L of cellular media. After a proscribed incubation period, luminescence was measured using a TopCount NXT plate reader (PerkinElmer, Waltham, Mass.).
Data set [2] concerns PARP in HCT116 cells. The experiment in a line: PARP activation by 5-FU. Format: cell-based. An excerpt: Kim, M. Y. et al. Genes & Development 19:1951-67 (2005)). […] TS inactivation is know to cause an imbalance in nucleotide pools that subsequently promotes aberrant uracil incorporation into DNA (Berger S. H. et al. Biochemical Pharmacology 76:697-706 (2008)).
The test system of data set [3] is murine gastric and bladder tumors. The following applies: immune-competent mice; cited from earlier work.
Data set [4] can be described thus: Cytotoxicity Assay (CellTiter-Glo, 72 hour drug incubation). As to conditions: human, HCT116 cells.
Experimental: as §1
For data set [5], the target named is T1, Human NAMPT (Homo sapiens, UniProt P43490).
T1 construct: 6xHis (N); made in house; host or cells: E. coli BL21-AI
T1 sequence (P43490 whole entry): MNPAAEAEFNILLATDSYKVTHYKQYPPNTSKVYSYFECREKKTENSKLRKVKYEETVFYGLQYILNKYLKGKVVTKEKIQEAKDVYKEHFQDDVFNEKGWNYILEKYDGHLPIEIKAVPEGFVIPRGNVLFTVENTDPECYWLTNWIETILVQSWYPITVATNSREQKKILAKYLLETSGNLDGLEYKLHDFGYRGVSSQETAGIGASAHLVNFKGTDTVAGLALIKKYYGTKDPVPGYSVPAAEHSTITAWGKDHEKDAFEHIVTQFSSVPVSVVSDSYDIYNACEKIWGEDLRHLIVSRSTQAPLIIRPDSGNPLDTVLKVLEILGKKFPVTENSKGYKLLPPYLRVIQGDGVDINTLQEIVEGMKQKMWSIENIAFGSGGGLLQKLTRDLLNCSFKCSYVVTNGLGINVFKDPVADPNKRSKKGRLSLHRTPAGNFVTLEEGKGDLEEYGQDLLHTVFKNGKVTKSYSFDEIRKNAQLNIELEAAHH
The experiment in a line: Nampt Activity Assay (coupled enzyme, resazurin/diaphorase fluorometric detection of NADH). Format: biochemical. The following applies: read-out: vitro IC50 (Nampt activity assay). The source says: 5-phosphoribosyl-1-pyrophosphate (PRPP), ATP, NaM, NaMN, Triton X-100, UDP-glucose and diaphorase were purchased from Sigma-Aldrich, St. Louis, Mo. Human NAMPT, NMN adenylyltransferase (NMNAT1) and UDP-glucose dehydrogenase (UGDH) encoding DNAs were each inserted into a house-modified E. Coli expression vector such that the expressed proteins carried an N-terminal 6×His tag. The His-tagged proteins were expressed in the BL21-AI E. Coli expression strain (Invitrogen Corporation, Carlsbad, Calif.) following induction by 0.2% L-arabinose and 0.5 mM IPTG at 30° C. Proteins were purified on Ni-NTA resin (Qiagen, Germantown, Md.).
The assay for Nampt catalytic activity was constructed based on a previously published coupled enzyme fluorometric technique, which employs NADH as ultimate analyte (Revollo, J. R. et al. Biol. Chem. 279, 50754-50763 (2004)). A substantial improvement in assay sensitivity was achieved by switching from direct detection to a resazurin/diaphorase-based fluorometric detection system for NADH (Guilbault, G. G., and Kramer, D. N. Anal. Chem. 37, 1219-1221 (1965)). The standard inhibition analyses were performed in a real-time mode in 96-well microtiter plates using 50 mM Tris-HCl, pH 7.5, 1% DMSO (v/v), 0.01% Triton X-100 (v/v), 10 mM MgCl2, 2 mM ATP, […], […], […], as well as the following detection reagents: 5 nM Nmnat, 200 nM Ugdh, 200 µM UDP-glucose, 0.02 U/mL diaphorase and […]. Incubation of samples at room temperature for up to 3 hours was followed by quantification of fluorescence intensities at excitation and emission wavelengths of 510 nm and 590 nm, respectively, using Gemini XS plate reader (Molecular Devices, Sunnyvale, Calif.). The counter-assay intended to disqualify false positives, such as inhibitors of detection enzymes or fluorescence quenchers, was carried out essentially as described above with an exception that 1 μM NaMN was substituted for Nampt.

Data set [6] has as its system PARP. The following applies: in vitro and in vivo models of cerebral ischemia; cited from earlier work.
Data set [7] concerns HCT116 cells. In words: Synergy between Nampt inhibitor and chemotherapeutic compounds (MacSynergy II, CellTiter-Glo). Format: cell-based. The following applies: combined with a known Nampt inhibitor.
Experimental: Experiments were conducted in HCT116 cells. […] Prior to combinations of compounds, dose curves of cells treated with a single compound were generated to define relevant compound doses to use in the combination analysis. Typically, relevant doses were those found in the inflection portion of a sigmoidal dose-response curve. Utilizing these optimized conditions, cells were dosed with Nampt inhibitor plus the test compound at a variety of concentrations of each, and viability was assessed using CellTiter-Glo. Data was processed using the MacSynergy™ II algorithm, which subtracted from actual data a prediction of compound additivity.

With “4-Fluoro-2-{2-[3- (morpholin-4- yl)azetidin-1- yl]pyridin-4-yl}- N-(4-{[(pyridin- 3-ylmethyl) carbamoyl] amino}phenyl) benzenesulfon- amide [Example 762]”, the IC50 in data set [1] was about 2.2 nM. As for `O=c1[nH]cc(F)c(=O)[nH]1` [5-fluorouracil (5-FU), 5-fluorouracil], in data set [2], the PARP activation entry is “PARP activator”.

On to `O=C(/C=C/c1cccnc1)NCCCCC1CCN(C(=O)c2ccccc2)CC1` [AP0866], for which the “effect on tumor growth, co-administration with L-1MT” value in data set [3] is listed as “additive inhibitory effect”. In data set [4], `O=C(NCCCNS(=O)(=O)c1ccccc1-c1ccccc1)NCc1cccnc1` [Example 152, N-(3-{[(pyridin-3-ylmethyl)carbamoyl]amino}propyl)biphenyl-2-sulfonamide] had a half-inhibitory concentration (IC50) at 72 h of about 55 nM. In addition, in data set [5], the IC50 is about 2 nM. In data set [4], `O=C(NCc1cccnc1)Nc1ccc(COc2cc(C(F)(F)F)ccc2Cl)cc1` [Example 164, 1-(4-{[2-Chloro-5-(trifluoromethyl)phenoxy]methyl}phenyl)-3-(pyridin-3-ylmethyl)urea] displayed an IC50 at 72 h of about 74 nM. Also, the half-maximal inhibitory concentration (IC50) in data set [5] was about 1.8 nM. In turn, `O=C(NCc1cccnc1)Nc1ccc(C[S+]([O-])c2ccccc2-c2ccccc2)cc1` (centres unmarked) [Example 210, 1-{4-[(biphenyl-2-ylsulfinyl)methyl]phenyl}-3-(pyridin-3-ylmethyl)urea] had an IC50 at 72 h in data set [4] of about 39 nM. Besides, the IC50 in data set [5] is about 6.3 nM. On the same counts, the results for `C[C@H](Oc1ccccc1-c1ccccc1)c1nc(CNC(=O)NCc2cccnc2)cs1` [Example 363, 1-({2-[(1S)-1-(Biphenyl-2-yloxy)ethyl]-1,3-thiazol-4-yl}methyl)-3-(pyridin-3-ylmethyl)urea] are about 290 nM and about 3.4 nM. `N#Cc1ccc(S(=O)(=O)Nc2ccc(NC(=O)NCc3cccnc3)cc2)c(Cl)c1` [Example 580, 2-Chloro-4-cyano-N-(4-{[(pyridin-3-ylmethyl)carbamoyl]amino}phenyl) benzenesulfonamide] showed an IC50 at 72 h in data set [4] of about 100 nM. The IC50 in data set [5] is about 0.8 nM. On the same counts, the results for `N#C/N=C(/NCc1ccc(COc2ccccc2-c2ccccc2)cc1)Nc1ccncc1` [Example 605, 1-{4-[(Biphenyl-2-yloxy)methyl]benzyl}-2-cyano-3-pyridin-4-ylguanidine] are about 1.1 nM and about 2.4 nM. Taken in the same sequence, the figures for `COc1cc(N/C(=N/C#N)NCc2ccc(NS(=O)(=O)c3ccccc3-c3ccccc3)cc2)ccn1` [Example 613, N-{4-[({(Z)-(Cyanoamino)[(2-methoxypyridin-4-yl)amino]methylidene}amino)methyl]phenyl} biphenyl-2-sulfonamide] were about 2600 nM and about 11 nM. Taken in the same sequence, the figures for `N#C/N=C(/NCC(=O)NCCOc1ccccc1-c1ccccc1)Nc1ccncc1` [Example 634, (Z)-N-[2-(Biphenyl-2-yloxy)ethyl]-N~2~- [(cyanoamino)(pyridin-4-ylamino)methylidene] glycinamide] were about 5000 nM and about 520 nM. `N#C/N=C(\NCCOc1ccccc1-c1ccccc1)Nc1cccnc1` [Example 641, 1-[2-(Biphenyl-2-yloxy)ethyl]-2-cyano-3-pyridin-3-ylguanidine]: in data set [4], the IC50 at 72 h is about 3200 nM. Moreover, the IC50 in data set [5] was about 1300 nM. As to `O=C(NCc1cccnc1)Nc1ccc(OCCc2ccc(F)cc2-c2ccnc(N3CCNCC3)c2)cc1` [Example 759, 1-[4-(2-{4-Fluoro-2-[2-(piperazin-1-yl)pyridin-4-yl]phenyl}ethoxy)phenyl]-3-(pyridin-3-ylmethyl)urea], the IC50 at 72 h in data set [4] was about 1.9 nM. As for `CN(C)CCOc1cccc(-c2ccccc2CCOc2ccc(NC(=O)NCc3cccnc3)cc2)c1` [Example 797, 1-[4-(2-{3′-[2-(Dimethylamino)ethoxy]biphenyl-2-yl}ethoxy)phenyl]-3-(pyridin-3-ylmethyl)urea], the IC50 in data set [5] is about 10 nM. On the same count and under the same terms, then `O=C(NCc1cccnc1)Nc1ccc(NS(=O)(=O)c2cc(C(=O)NCC3CCCN3)c(Cl)cc2F)cc1` (centres unmarked) [Example 831, 2-Chloro-4-fluoro-5-[(4-{[(pyridin-3-ylmethyl)carbamoyl]amino}phenyl)sulfamoyl]-N-(pyrrolidin-2-ylmethyl)benzamide], with about 10 nM.

`O=c1[nH]c(CCCN2CC=C(c3ccccc3)CC2)nc2cccc(Cl)c12` [FR247304]: the neuronal damage entry in data set [6] is on record as “attenuate neuronal damage”. In the case of `Oc1cccc(-c2nc(N3CCOCC3)c3oc4ncccc4c3n2)c1` [PI-103], the “drug interaction (synergy, additivity, or antagonism) with Nampt inhibitor” value in data set [7] is recorded as “synergized”.

Take `COS(C)(=O)=O` [methyl methanesulfonate (MMS), methyl methanesulfonate]: the “drug interaction (synergy, additivity, or antagonism) with Nampt inhibitor” value in data set [7] was “synergy”. Same read-out and setting: under `O=C(c1cc(Cc2n[nH]c(=O)c3ccccc23)ccc1F)N1CCN(C(=O)C2CC2)CC1` [olaparib] stands “antagonism”; under `Cc1nc2ccc(CN(C)c3ccc(C(=O)N[C@@H](CCC(=O)O)C(=O)O)s3)cc2c(=O)[nH]1` [raltitrexed], “synergized”.
